According to US20240156902A1, “METHODS OF TREATING NEURODEGENERATIVE DISORDERS WITH INTRANASAL NF-KAPPAB ESSENTIAL MODIFIER (NEMO)-BINDING DOMAIN (NBD) PEPTIDE” (Rush University Medical Center, priority 2021, published 2024):
Read-outs that look alike come from different tables or passages of the source.

Legend:
[1] = system: PFF-seeded A53T transgenic mice; experiment: Locomotor activities of PFF-seeded A53T mice (open field test, rotarod); format: in vivo, mouse; conditions: intranasal 0.1 mg/kg/d for 1 month
Experimental: (§1) FIG. 4A-L depicts the results following intranasal administration of wtNBD peptide reducing Parkinsonian pathology in PFF-seeded mouse model of Lewy body diseases. PFF-seeded A53T animals were given intranasal administration of 0.1 mg/kg wtNBD peptide daily for one month Parkinsonian pathology was evaluated by TH immunohistochemistry of nigral sections (FIG. 4A), immunoblotting of total TH level in SN (FIG. 4B and FIG. 4C), assessing striatal level of dopamine (DA), and its metabolites 3,4-dihydroxyphenyl acetate (DOPAC), homovanillic acid (HVA) (FIG. 4D-F). Behavioral analyses of animals were performed by open field test (FIG. 4G), where movement parameters such as distance (FIG. 4H), velocity (FIG. 4I), cumulative duration (FIG. 4J) and rearings (FIG. 4K) were recorded. Feet movement was analysed by rotarod test (FIG. 4L). Statistical significance was determined by one-way ANOVA followed by Tukey's multiple comparison tests. *p<0.05, **p<0.01, ***p<0.001 indicate significance compared to respective groups. Values are given as mean±SEM (n=4 per group).
(§2) The wtNBD peptide (SEQ ID NO: 4) was solubilized in normal saline in such a way so that each mouse receives 0.1 mg/kg of body weight NBD peptide in 2.5 μl of saline. […]
Next, the effect of intranasal wtNBD on PFF-induced Parkinsonian pathologies was monitored. […]

[2] = in vivo; cited from earlier work
NF-κB [3] = experiment: NF-κB activation in nigra of PFF-seeded A53T mice (acetylated p65 in microglia); format: in vivo, mouse; conditions: intranasal 0.1 mg/kg/d for 1 month
Experimental: (§3) Following 2 months of surgery, animals received wild type NBD (wtNBD) at a dose of 0.1 mg/kg body weight/day intranasally. After 1 month of wtNBD treatment, behavioral analyses were performed followed by immunohistochemistry and different biochemical experiments.
FIG. 2A and FIG. 2B show the results following intranasal administration of wtNBD peptide inhibiting NF-κB activation in the nigra of PFF-seeded mouse model of Lewy body diseases. A53T transgenic mice were seeded with PFF bilaterally and following 2 months of brain surgery, animals were given intranasal administration of 0.1 mg/kg wtNBD peptide daily. Activation of NF-κB in nigra was monitored by evaluating the level of acetylated (K310) p65 in Ibal+ve microglia in different groups of mice. Marked up-regulation of microglial acetylated p65 level in the SN of PFF-seeded mice was found compared to the PBS-injected mice (FIG. 2A and FIG. 2B). […] Statistical significance was determined by one-way ANOVA followed by Tukey's multiple comparison tests. *p<0.05, ***p<0.001 indicate significance compared to respective groups. Values are given as mean±SEM (n=4 per group). […]
(§4) Following 1 month of wtNBD administration, NF-κB activation in substantia nigra (SN) and spreading of α-syn in both SN and motor cortex were monitored. […]

α-syn = α-syn spreading from striatum to nigra and motor cortex in PFF-seeded A53T mice (pSyn129 immunostaining, α-syn immunoblot); format: in vivo, mouse; conditions: intranasal 0.1 mg/kg/d for 1 month
Experimental: as §3
Propagation of α-syn in PFF-seeded A53T mouse brain was monitored in SN by pSyn129 immunostaining and relative intensity measurement (FIG. 3A, FIG. 3B) and also by immunoblotting total α-syn in Triton X-100 soluble and insoluble fractions (FIG. 3C, FIG. 3D). The ratio of α-syn to actin is shown in the diagrams (FIG. 3E, FIG. 3F). Level of pSyn129 in motor cortex was assessed by immunohistochemistry (FIG. 3G, FIG. 3H). Two sections from each brain were used for immunostaining and pSyn129 specific intensity was analysed by Fiji. One-way ANOVA followed by Tukey's multiple comparison tests was conducted for statistical analyses. **p<0.01, ***p<0.001 indicate significance compared to respective groups. Values are given as mean±SEM (n=4 animals per group).
as §2, §4

dopaminergic neurons = experiment: Parkinsonian pathology in PFF-seeded A53T mice (TH immunohistochemistry, TH immunoblot, striatal neurotransmitters); format: in vivo, mouse; conditions: intranasal 0.1 mg/kg/d for 1 month
Experimental: as §1
The wtNBD peptide (SEQ ID NO: 4) was solubilized in normal saline in such a way so that each mouse receives 0.1 mg/kg of body weight NBD peptide in 2.5 μl of saline. Then 2.5 μl of wtNBD solution was administered in mice through each nostril every day for a total of 30 days. Mice were hold in supine condition while administering wtNBD solution. See Rangasamy et al. “Selective disruption of TLR2-MyD88 interaction inhibits inflammation and attenuates Alzheimer's pathology” (2018) J Clin Invest 128, 4297-4312. Intranasal treatment was started for preformed α-syn fibril (PFF) or PBS injected A53T animals at the age of 5 months (2 months following the brain surgery) for the next 30 days. Aged A53T animals (8 months old) were also treated with wtNBD peptides for 1 month followed by behavioural tests and other experiments at the age of 9 months.
Next, the effect of intranasal wtNBD on PFF-induced Parkinsonian pathologies was monitored. […] Locomotor deficit was also evident by rotarod analysis (FIG. 4L).

NF-κB [4] = conditions: in vivo in the brain; cited from earlier work
NF-κB [5] = conditions: cultured brain cells; cited from earlier work

| Substance | movement deficits (open field distance, velocity, cumulative duration, rearing; rotarod) [1] | entry into the brain [2] | microglial acetylated (K310) p65 level in the SN (NF-κB [3]) | level of pSyn129 in nigral neurons (relative optical density in SN) (α-syn; PFF-seeded A53T mice) | accumulation of pSyn129 in cortical neurons (motor cortex) (α-syn; compared to saline-treated PFF-seeded mice) | nigral TH neurons (dopaminergic neurons) | nigral TH protein level (dopaminergic neurons) | striatal DA level (dopaminergic neurons) | block of the function of NF-κB (NF-κB [4]) | block of the function of NF-κB (NF-κB [5]) |
| --- | --- | --- | --- | --- | --- | --- | --- | --- | --- | --- |
| DRQIKIWFQNRRMKWKKLDWSWL (DRQIKWFQNRRMKWKKLDWSWL) [wtNBD, truncated wtNBD hexapeptide coupled to the Antennapedia homeodomain] | significantly inhibited | enters into the brain | significantly decreased | drastically reduced | reduced accumulation | significantly protected | significantly protected | significantly protected | – | – |
| LDWSWL [truncated hexapeptide of the wtNBD] | – | – | – | – | – | – | – | – | sufficient to block | sufficient to block |
